# pIC50: −log10 of the molar value.
# System: 616215-338-R-J1-PDC complex spheroid growth, % test/control
# Experiment: Anticancer human tumor 616215-338-R-J1-PDC patient-derived colon adenocarcinoma cell line growth inhibition [Asc]
# Conditions: for pIC50: curve of first compound; for viability, T/C: stronger effect = lower value
# In short: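 Spheroid model: tumor line + HUVEC + hMSC. Single agents and combinations; top conc. at/near clinical Cmax (10 microM if undetermined), half-log dilutions. DMSO stocks at 800-fold test concentration.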
# 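Note: spheroids exposed to agents for seven days before readout.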
# 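Throughout, for viability, T/C: 100% = DMSO vehicle control viability.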
smiles,measurement,setting,value
NC(=O)C(=Cn1cnc(-c2cc(C(F)(F)F)cc(C(F)(F)F)c2)n1)c1cncnc1 + CCN1C(C(=O)NC23CCC(C(=O)O)(CC2)CC3)C(c2cccc(Cl)c2F)C2(C(=O)Nc3cc(Cl)ccc32)C12CCCCC2,pIC50,second compound 0.03 µM,< 6.52
same,pIC50,second compound 0.0949 µM,7.11
same,pIC50,second compound 0.3 µM,8.19
same,pIC50,second compound 0.949 µM,> 9.02
same,pIC50,second compound 3 µM,> 9.02
same,"viability, T/C","second compound 0.03 µM, first compound 0.000949 µM",89.7%
same,"viability, T/C","second compound 0.03 µM, first compound 0.003 µM",93.4%
same,"viability, T/C","second compound 0.03 µM, first compound 0.00949 µM",88.1%
same,"viability, T/C","second compound 0.03 µM, first compound 0.03 µM",83.7%
same,"viability, T/C","second compound 0.03 µM, first compound 0.0949 µM",73.8%
same,"viability, T/C","second compound 0.03 µM, first compound 0.3 µM",56.2%
same,"viability, T/C","second compound 0.0949 µM, first compound 0.000949 µM",84.4%
same,"viability, T/C","second compound 0.0949 µM, first compound 0.003 µM",85.4%
same,"viability, T/C","second compound 0.0949 µM, first compound 0.00949 µM",75.5%
same,"viability, T/C","second compound 0.0949 µM, first compound 0.03 µM",61.3%
same,"viability, T/C","second compound 0.0949 µM, first compound 0.0949 µM",48.8%
same,"viability, T/C","second compound 0.0949 µM, first compound 0.3 µM",28.9%
same,"viability, T/C","second compound 0.3 µM, first compound 0.000949 µM",60%
same,"viability, T/C","second compound 0.3 µM, first compound 0.003 µM",57.2%
same,"viability, T/C","second compound 0.3 µM, first compound 0.00949 µM",48.2%
same,"viability, T/C","second compound 0.3 µM, first compound 0.03 µM",32.6%
same,"viability, T/C","second compound 0.3 µM, first compound 0.0949 µM",24.9%
same,"viability, T/C","second compound 0.3 µM, first compound 0.3 µM",6.51%
same,"viability, T/C","second compound 0.949 µM, first compound 0.000949 µM",49.2%
same,"viability, T/C","second compound 0.949 µM, first compound 0.003 µM",48.9%
same,"viability, T/C","second compound 0.949 µM, first compound 0.00949 µM",35.5%
same,"viability, T/C","second compound 0.949 µM, first compound 0.03 µM",11.2%
same,"viability, T/C","second compound 0.949 µM, first compound 0.0949 µM",3.85%
same,"viability, T/C","second compound 0.949 µM, first compound 0.3 µM",0.63%
same,"viability, T/C","second compound 3 µM, first compound 0.000949 µM",39.3%
same,"viability, T/C","second compound 3 µM, first compound 0.003 µM",32.4%
same,"viability, T/C","second compound 3 µM, first compound 0.00949 µM",17.5%
same,"viability, T/C","second compound 3 µM, first compound 0.03 µM",3.73%
same,"viability, T/C","second compound 3 µM, first compound 0.0949 µM",1.87%
same,"viability, T/C","second compound 3 µM, first compound 0.3 µM",0.41%
CCN1CCN(Cc2ccc(Nc3ncc(F)c(-c4cc(F)c5nc(C)n(C(C)C)c5c4)n3)nc2)CC1 + CCN1C(C(=O)NC23CCC(C(=O)O)(CC2)CC3)C(c2cccc(Cl)c2F)C2(C(=O)Nc3cc(Cl)ccc32)C12CCCCC2,pIC50,second compound 0.03 µM,< 6.00
same,pIC50,second compound 0.0949 µM,< 6.00
same,pIC50,second compound 0.3 µM,< 6.00
same,pIC50,second compound 0.949 µM,< 6.00
same,pIC50,second compound 3 µM,6.82
same,"viability, T/C","second compound 0.03 µM, first compound 0.00316 µM",102%
same,"viability, T/C","second compound 0.03 µM, first compound 0.01 µM",99.2%
same,"viability, T/C","second compound 0.03 µM, first compound 0.0316 µM",104%
same,"viability, T/C","second compound 0.03 µM, first compound 0.1 µM",108%
same,"viability, T/C","second compound 0.03 µM, first compound 0.316 µM",108%
same,"viability, T/C","second compound 0.03 µM, first compound 1 µM",116%
same,"viability, T/C","second compound 0.0949 µM, first compound 0.00316 µM",93.6%
same,"viability, T/C","second compound 0.0949 µM, first compound 0.01 µM",96%
same,"viability, T/C","second compound 0.0949 µM, first compound 0.0316 µM",97.2%
same,"viability, T/C","second compound 0.0949 µM, first compound 0.1 µM",80.5%
same,"viability, T/C","second compound 0.0949 µM, first compound 0.316 µM",88.2%
same,"viability, T/C","second compound 0.0949 µM, first compound 1 µM",75.2%
same,"viability, T/C","second compound 0.3 µM, first compound 0.00316 µM",66.2%
same,"viability, T/C","second compound 0.3 µM, first compound 0.01 µM",67%
same,"viability, T/C","second compound 0.3 µM, first compound 0.0316 µM",63.3%
same,"viability, T/C","second compound 0.3 µM, first compound 0.1 µM",58.3%
same,"viability, T/C","second compound 0.3 µM, first compound 0.316 µM",69.5%
same,"viability, T/C","second compound 0.3 µM, first compound 1 µM",59.9%
same,"viability, T/C","second compound 0.949 µM, first compound 0.00316 µM",60.5%
same,"viability, T/C","second compound 0.949 µM, first compound 0.01 µM",66.6%
same,"viability, T/C","second compound 0.949 µM, first compound 0.0316 µM",72.1%
same,"viability, T/C","second compound 0.949 µM, first compound 0.1 µM",68.9%
same,"viability, T/C","second compound 0.949 µM, first compound 0.316 µM",83.6%
same,"viability, T/C","second compound 0.949 µM, first compound 1 µM",52%
same,"viability, T/C","second compound 3 µM, first compound 0.00316 µM",48.2%
same,"viability, T/C","second compound 3 µM, first compound 0.01 µM",52.4%
same,"viability, T/C","second compound 3 µM, first compound 0.0316 µM",48.3%
same,"viability, T/C","second compound 3 µM, first compound 0.1 µM",56.4%
same,"viability, T/C","second compound 3 µM, first compound 0.316 µM",54.7%
same,"viability, T/C","second compound 3 µM, first compound 1 µM",42.2%

# From PubChem BioAssay AID1963448 (Molecular Pharmacology Branch, DTP, NCI, 2024)
